Results as given in the supplement of paper PMC10307832.

Legend:
Assay in all cases: relative viability (nuclei count vs DMSO), 5 days (fraction); higher = more cells survive
XMD8-85 + Lapatinib = compound: CN1CCN(CC1)C2=CC(=C(C=C2)NC3=NC=C4C(=N3)N(C5=CC=CC=C5C(=O)N4C)C)OC [XMD8-85] + CS(=O)(=O)CCNCc1ccc(-c2ccc3ncnc(Nc4ccc(OCc5cccc(F)c5)c(Cl)c4)c3c2)o1 [Lapatinib] (partner 2 µM)
Procedure, shortened: (§1)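 The day after seeding in 1536-well plates, lung cancer cell lines were treated by pin tool with a single drug, or with a fixed anchor-drug dose together with five library-drug doses (not always all listed) in √10 steps. After 5 days, a combined fix-and-stain solution (final 0.05% Triton X-100, 1% formaldehyde, 1 ug/ml Hoechst) was added. Nuclei counted on 4× images gave relative viability as treated counts over vehicle counts, reported as the median of duplicate plates.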

4EGI-1 + Palbociclib = compound: O=C(O)C(Cc1ccccc1[N+](=O)[O-])=NNc1nc(-c2ccc(Cl)c(Cl)c2)cs1 (mixture of isomers) [4EGI-1] + CC(=O)c1c(C)c2cnc(Nc3ccc(N4CCNCC4)cn3)nc2n(C2CCCC2)c1=O [Palbociclib] (partner 0.5 µM)
Procedure, shortened: as §1

4EGI-1 + Luminespib = compound: O=C(O)C(Cc1ccccc1[N+](=O)[O-])=NNc1nc(-c2ccc(Cl)c(Cl)c2)cs1 (mixture of isomers) [4EGI-1] + CCNC(=O)c1noc(-c2cc(C(C)C)c(O)cc2O)c1-c1ccc(CN2CCOCC2)cc1 [Luminespib] (partner 0.01 µM)
Procedure, shortened: as §1

4EGI-1 + Phenformin = compound: O=C(O)C(Cc1ccccc1[N+](=O)[O-])=NNc1nc(-c2ccc(Cl)c(Cl)c2)cs1 (mixture of isomers) [4EGI-1] + N=C(N)NC(=N)NCCc1ccccc1 [Phenformin] (partner 250 µM)
Procedure, shortened: as §1

Cell Line	relative viability (XMD8-85 + Lapatinib; first compound 0.08 µM)	relative viability (XMD8-85 + Lapatinib; first compound 0.253 µM)	relative viability (XMD8-85 + Lapatinib; first compound 0.8 µM)	relative viability (XMD8-85 + Lapatinib; first compound 2.53 µM)	relative viability (XMD8-85 + Lapatinib; first compound 8 µM)	relative viability (4EGI-1 + Palbociclib; first compound 0.5 µM)	relative viability (4EGI-1 + Palbociclib; first compound 1.581 µM)	relative viability (4EGI-1 + Palbociclib; first compound 5 µM)	relative viability (4EGI-1 + Palbociclib; first compound 15.81 µM)	relative viability (4EGI-1 + Palbociclib; first compound 50 µM)	relative viability (4EGI-1 + Luminespib; first compound 0.5 µM)	relative viability (4EGI-1 + Luminespib; first compound 1.581 µM)	relative viability (4EGI-1 + Luminespib; first compound 5 µM)	relative viability (4EGI-1 + Luminespib; first compound 15.81 µM)	relative viability (4EGI-1 + Luminespib; first compound 50 µM)	relative viability (4EGI-1 + Phenformin; first compound 0.5 µM)	relative viability (4EGI-1 + Phenformin; first compound 1.581 µM)	relative viability (4EGI-1 + Phenformin; first compound 5 µM)	relative viability (4EGI-1 + Phenformin; first compound 15.81 µM)	relative viability (4EGI-1 + Phenformin; first compound 50 µM)
NCI-H2009	0.934	0.931	1.01	0.841	0.456	0.251	0.243	0.224	0.196	0.149	1.09	1.08	1.05	0.954	0.994	0.55	0.494	0.528	0.366	0.18
RERF-LC-KJ	0.871	0.795	0.905	0.989	0.769	1.09	0.481	0.953	0.882	0.625	1.16		1.17	0.994	0.281	0.412		0.442	0.354	0.333
201T	1.07	1.01	1.02	1	0.828	0.365	0.358	0.364	0.316	0.31	1.08	0.973	1.09	0.92	0.782	0.456	0.475	0.427	0.45	0.428
HCC-827	0.185	0.192	0.175	0.195	0.193	0.521	0.403	0.565		0.5	0.672	0.804	0.661		0.581	0.403	0.394	0.396		0.353
NCI-H838	0.942	1.05	1.09	0.967	0.45	0.237	0.223	0.228	0.2	0.119	0.335		0.226	0.229	0.144	0.605		0.623	0.487	0.153
NCI-H1734	1.05	0.977	1.03	1.17	0.987	0.395	0.281	0.373	0.38	0.246	0.203	0.193	0.22	0.2	0.177	0.477	0.341	0.43	0.352	0.256
NCI-H1355	0.956	1.03	1.01	1.08	0.875	0.415	0.396	0.406	0.337	0.316	0.708	0.706	0.762	0.445	0.326	0.469	0.439	0.45	0.413	0.33
HCC-44	0.942	0.884	1.1	1.06	0.959	1	0.813	0.907	0.862	0.681	1.22		0.979	0.764	0.23	0.184		0.192	0.118	0.137
NCI-H2085	0.791	0.778	0.815	0.719	0.566	0.518	0.462	0.453	0.474	0.339	0.461	0.452	0.468	0.396	0.355	0.8	0.795	0.823	0.536	0.404
NCI-H520	0.825	0.749	1.03	0.906	0.756	0.27	0.225	0.266	0.223	0.105	0.231	0.241	0.184	0.256	0.205	0.866	0.589	0.703	0.669	0.191
NCI-H647	1.08	1.09	1.24	1.48	0.638	0.53	0.302	0.455	0.303	0.0557	0.227		0.149	0.137	0.141	0.562		0.819	0.419	0.141
NCI-H358	0.438	0.52	0.455	0.486	0.405	0.12	0.153	0.152	0.153	0.12	0.339	0.353	0.293	0.224	0.153	0.311	0.297	0.343	0.215	0.111
NCI-H1944	0.784	0.733	0.897	1.02	0.702	0.404		0.33	0.273	0.252	0.717		0.774	0.633	0.561	0.206		0.207	0.185	0.191
LU99A	1.11	0.96	1.05	1.06	0.882	0.41	0.281	0.396	0.498	0.297	0.246	0.271	0.308	0.228	0.205	1.03	0.595	0.924	0.885	0.391
SW 1573	1.1	1.21	1.02	1.09	0.885	0.417	0.354	0.47	0.257	0.119	0.227	0.198	0.248	0.168	0.116	0.457	0.388	0.403	0.276	0.114
HARA	0.761	0.781	0.907	0.787	0.569	0.32	0.243	0.295	0.222	0.202	0.954	0.958	0.968	0.645	0.0683	0.593	0.506	0.497	0.41	0.376
